Patent US20210355539A1, “BIOMARKERS FROM MINIMALLY INVASIVE SAMPLING REFLECTIVE OF THE PLACENTAL IMMUNE MICROENVIRONMENT” (NEW YORK UNIVERSITY, priority 2020, published 2021)
Like-named read-outs stand apart in the source and are kept apart here.

Experiments:
term placental explants = assay: Term placental explants treated with LPS and Cytochalasin-D, TNF-α ELISA; format: cell-based, human; details: 2 LPS doses and Cytochalasin-D (9.8 uM)
Text: Human first and second trimester placentas from elective termination of normal pregnancies (8 to 23 weeks gestation) were collected. The second trimester placenta samples were obtained after elective terminations induced by mechanical evacuation only. Human first and second trimester and term placentas were also collected from vaginal delivery or C-section. A placental explant system was used to preserve the normal cellular architecture. Placental samples from term and third trimester were collected from the maternal side as previously described (Kim et al., 2018, Am J Reprod Immunol, December 26: e13080). Placental explants were processed immediately after collection and prepared as previously described (Peltier et al., 2013, Am J Reprod Immunol, 69: 142e149). […]
Supernatant cytokine concentrations were analyzed using Ready-Set-Go™ ELISA kits (eBioscience; San Diego, Calif.). The measured cytokines included TNF-a, IL-1b and IL-10 and the concentrations were expressed in pg/ml.
For this reason, the kit was utilized for all of the following experiments to isolate EVs. […] Media were collected and analyzed. […] THP-1 cell culture media was collected after 24 h, and TNF-α levels were analyzed by ELISA (FIG. 2E). […]

human placenta = details: cited from earlier work

Compound	TNF-α production (term placental explants)	effect on LPS induced inflammation and TNF-α production (human placenta; Speer et al., 2017, listed as pentoxifylline)	effect on LPS induced inflammation and TNF-α production (human placenta; Speer et al., 2017)
C=C1[C@@H](C)[C@H]2[C@H](Cc3ccccc3)NC(=O)[C@]23[C@H](OC(C)=O)/C=C/[C@@](C)(O)C(=O)[C@@H](C)C/C=C/[C@H]3[C@@H]1O [Cytoclasin-D, Cytochalasin-D]	18979 ± 7626 pg/mL		
CC(=O)CCCCn1c(=O)c2c(ncn2C)n(C)c1=O [Pentoxixyline, pentoxifylline]		inhibits LPS induced TNF-α	inhibited LPS induced inflammation and TNF-α production
